Experimental data from ChEMBL document CHEMBL4742386, “4-oxo-3,4-dihydro-1,2,3-benzotriazine derivatives as modulators of gpr139” (2019).

Assays:
Type in all cases: functional
[1] = Induction of c-Fos expression in C57BL/6 mouse assessed as cFos cell count in brain at 0.3 mg/kg for 2 hrs by immunohistochemistry (reference value: 470)
[2] = Induction of c-Fos expression in C57BL/6 mouse assessed as cFos cell count in brain at 0.03 mg/kg for 1 hr by immunohistochemistry (reference value: 470)
[3] = Induction of c-Fos expression in C57BL/6 mouse assessed as cFos cell count in brain at 0.3 mg/kg for 4 hrs by immunohistochemistry (reference value: 470)
[4] = Induction of c-Fos expression in C57BL/6 mouse assessed as cFos cell count in brain at 3 mg/kg for 1 hr by immunohistochemistry (reference value: 470)
[5] = Induction of c-Fos expression in C57BL/6 mouse assessed as cFos cell count in brain at 0.3 mg/kg for 1 hr by immunohistochemistry (reference value: 470)
[6] = Induction of c-Fos expression in C57BL/6 mouse assessed as cFos cell count in brain at 0.1 mg/kg for 1 hr by immunohistochemistry (reference value: 470)
[7] = Induction of c-Fos expression in C57BL/6 mouse assessed as cFos cell count in brain at 0.3 mg/kg by immunohistochemistry (reference value: 267)
[8] = Induction of c-Fos expression in C57BL/6 mouse assessed as cFos cell count in brain at 0.1 mg/kg for 1 hr by immunohistochemistry (reference value: 413.7)
[9] = Induction of c-Fos expression in C57BL/6 mouse assessed as cFos cell count in brain at 3 mg/kg for 1 hr by immunohistochemistry (reference value: 413.7)
[10] = Induction of c-Fos expression in C57BL/6 mouse assessed as cFos cell count in brain at 0.1 mg/kg by immunohistochemistry (reference value: 267)
[11] = Induction of c-Fos expression in C57BL/6 mouse assessed as cFos cell count in brain at 0.1 mg/kg for 5 days by immunohistochemistry (reference value: 352 to 450); conditions: time 5 day
[12] = Induction of c-Fos expression in C57BL/6 mouse assessed as cFos cell count in brain at 0.3 mg/kg for 2 hrs by immunohistochemistry (reference value: 413.7)
[13] = Induction of c-Fos expression in C57BL/6 mouse assessed as cFos cell count in brain at 0.3 mg/kg for 1 hr by immunohistochemistry (reference value: 413.7)
[14] = Induction of c-Fos expression in C57BL/6 mouse assessed as cFos cell count in brain at 0.3 mg/kg for 4 hrs by immunohistochemistry (reference value: 413.7)
[15] = Induction of c-Fos expression in C57BL/6 mouse assessed as cFos cell count in brain at 1 mg/kg by immunohistochemistry (reference value: 267)
[16] = Induction of c-Fos expression in C57BL/6 mouse assessed as cFos cell count in brain at 0.03 mg/kg by immunohistochemistry (reference value: 267)
[17] = Induction of c-Fos expression in C57BL/6 mouse assessed as cFos cell count in brain at 0.1 mg/kg for 1 days by immunohistochemistry (reference value: 352); conditions: time 1 day
[18] = Induction of c-Fos expression in C57BL/6 mouse assessed as cFos cell count in brain at 0.1 mg/kg for 10 days by immunohistochemistry (reference value: 450); conditions: time 10 day
[19] = Induction of c-Fos expression in C57BL/6 mouse assessed as cFos cell count in brain at 0.01 mg/kg by immunohistochemistry (reference value: 267)

Row | SMILES | Activity [1] | Activity [2] | Activity [3] | Activity [4] | Activity [5] | Activity [6] | Activity [7] | Activity [8] | Activity [9] | Activity [10] | Activity [11] | Activity [12] | Activity [13] | Activity [14] | Activity [15] | Activity [16] | Activity [17] | Activity [18] | Activity [19]
1 | COc1cccc2nnn(CC(=O)N[C@@H](C)c3ccc(C)cc3)c(=O)c12 | 2777 | 1628 | 865 | 2023 | 2458 | 2243 |  |  |  |  |  |  |  |  |  |  |  |  | 
2 | C[C@H](NC(=O)Cn1nnc2ccccc2c1=O)c1ccc(OC(F)(F)F)cc1 [ZELATRIAZIN] |  |  |  |  |  |  | 1408 | 787.7 | 2365 | 1381 | 1928 | 1400 | 1343 | 2170 | 1368 | 986.3 | 1486 | 1684 | 1376
